What all share (type): in vivo
What all share (details): 312 h, rate 250 g/ha, evaluated after 13 days, 100=total damage to plant, 0=no damage to plant

The subject of test [1] is Avena fatua (AVEFA). Description: Pre-emergence herbicidal activity, glasshouse pot test. The method, boiled down:
(§1)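 Seeds were sown in standard soil and sprayed one day after sowing with an aqueous solution of the active ingredient formulated in acetone/water (50:50) containing 0.5% Tween 20. Plants grew in the glasshouse at 24/16 °C day/night, 14 h light, 65% humidity. Damage was scored after 13 days (0 = none, 100 = total).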

For test [2], the system named is Alopecurus myosuroides (ALOMY). The test is described as above. Put shortly:
as §1

The test system of test [3] is Echinochloa crus-galli (ECHCG). The test is described as above. Put shortly: as §1
For test [4], the system named is Lolium perenne (LOLPE). The description is as above. Put shortly:
as §1

In test [5] the test system is Avena fatua (AVEFA). Description: Post-emergence herbicidal activity, glasshouse pot test. Put shortly: (§2)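 Visual damage score 0–100 (100 = plant killed) taken 13 d after treatment. Pots sown in standard soil, sprayed post-emergence at day 8; spray solution: acetone/water 50:50 + 0.5% Tween 20. Glasshouse 24/16 °C, 14 h photoperiod, 65% RH.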
In test [6] the test system is Alopecurus myosuroides (ALOMY). The test is described as above. The method, boiled down: as §2
Test [7] deals with Echinochloa crus-galli (ECHCG). The test is described as above. The method, boiled down: as §2
The subject of test [8] is Lolium perenne (LOLPE). The description is as above. Put shortly: as §2

Turning to `CCc1ccc(Oc2nc3ccccc3s2)cc1C1=C(O)[C@H]2[C@H]3CC[C@H](C3)[C@H]2C1=O` [Compound A-12], the pest or weed control at 250 g/ha was 30% with Avena fatua (AVEFA) [1]; 60% in test [2]; 70% in test [3]; 70% with Lolium perenne (LOLPE) [4]; 50% in the test with Avena fatua (AVEFA) [5]; 100% in test [6]. The pest or weed control at 250 g/ha in test [7] is 100%; in the test on Lolium perenne (LOLPE) [8], 70%.
In the case of `CCc1ccc(Oc2ccc(Cl)c(F)c2)cc1C1=C(O)CCC1=O` [Compound A-41], the pest or weed control at 250 g/ha in the test on Avena fatua (AVEFA) [1] turned out to be 0%; in test [2], 0%; in test [3] it was 30%; with Lolium perenne (LOLPE) [4], 0%; in the test on Avena fatua (AVEFA) [5] it was 10%; in test [6], 0%. In addition, the pest or weed control at 250 g/ha in test [7] is 70%; with Lolium perenne (LOLPE) [8], 20%.
For `CCc1ccc(Oc2ccc(Cl)cc2Cl)cc1C1=C(O)[C@H]2[C@H]3CC[C@H](C3)[C@H]2C1=O` [Compound A-21], the pest or weed control at 250 g/ha with Avena fatua (AVEFA) [1] turned out to be 0%; in test [2], 20%; in test [3], 40%; in the test with Lolium perenne (LOLPE) [4] it was 30%; in the test with Avena fatua (AVEFA) [5] it was 0%; in test [6], 40%. Also, the values for the pest or weed control at 250 g/ha (in test [7]; in the test on Lolium perenne (LOLPE) [8]) were 70% and 20%, respectively.
For `CCc1ccc(Oc2cnc3ccc(Br)cc3n2)cc1C1=C(O)CCC1=O` [Compound A-79], the pest or weed control at 250 g/ha in the test on Avena fatua (AVEFA) [1] is 20%; in test [2], 40%; in test [3] it was 90%; in the test with Lolium perenne (LOLPE) [4], 70%; with Avena fatua (AVEFA) [5], 0%; in test [6] it was 0%. The pest or weed control at 250 g/ha came to 50% in test [7] and 20% in the test with Lolium perenne (LOLPE) [8].
Consider `CCc1ccc(Oc2ccc(Br)cc2C)cc1C1=C(O)[C@H]2[C@@H](C1=O)[C@@H]1CC[C@H]2O1` [Compound A-3], for which the pest or weed control at 250 g/ha was 30% in the test on Avena fatua (AVEFA) [1]; 60% in test [2]; 90% in test [3]; 70% in the test with Lolium perenne (LOLPE) [4]; 90% in the test on Avena fatua (AVEFA) [5]; 90% in test [6]. The pest or weed control at 250 g/ha in test [7] came to 100%; in the test with Lolium perenne (LOLPE) [8], 70%.
Regarding `CCc1ccc(Oc2ccc(Br)cc2F)cc1C1=C(O)[C@H]2[C@@H](C1=O)[C@@H]1CC[C@H]2O1` [Compound A-2], the pest or weed control at 250 g/ha in the test on Avena fatua (AVEFA) [1] was determined as 30%; in test [2] it was 60%; in test [3], 60%; in the test on Lolium perenne (LOLPE) [4], 60%; with Avena fatua (AVEFA) [5], 100%; in test [6], 100%. Further, the pest or weed control at 250 g/ha (in test [7]; in the test with Lolium perenne (LOLPE) [8]) was 100% throughout.
Regarding `O=C1CCC(O)=C1c1cc(Oc2ccc(Cl)cc2)ccc1OC(F)(F)F` [Compound A-52, 2-[5-(4-chlorophenoxy)-2-trifluoromethoxyphenyl]cyclopentane-1,3-dione], the pest or weed control at 250 g/ha (with Avena fatua (AVEFA) [1]; in test [2]; in test [3]; with Lolium perenne (LOLPE) [4]; in the test on Avena fatua (AVEFA) [5]; in test [6]) was 0% throughout. The pest or weed control at 250 g/ha in test [7] was determined as 50%; in the test with Lolium perenne (LOLPE) [8], 0%.

The pest or weed control is the degree to which the test organism was suppressed or injured, in per cent. Higher therefore signals a strong effect.

The values above are taken from patent US8895474B2, “Herbicidally active cyclopentanediones and derivatives thereof, and their use in controlling weeds” (Syngenta Limited, priority 2009, dated 2014).
